Laboratory results: patent publication US4489096A, “Quinone compounds, their production and use” (Takeda Chemical Industries, Ltd., priority 1982, dated 1984)

system: SRS-A generation and release; assay: Inhibitory effect on generation and release of SRS-A (sensitized guinea pig lung fragments, antigen egg white albumin); type: cell-based, guinea pigs (Hartley strain); conditions: Cavia porcellus; 10^-6 M test compound; number of experiments 3; lung fragments from sensitized guinea pigs
Method: The compounds obtained in accordance with the invention were assayed for the inhibitory effect on the generation of SRS-A by the method of Orange and Moore [J. Immunol., vol. 116, page 392 (1976)]. Thus, the test compound and antigen (egg white albumin) were simultaneously added to the lung fragments from guinea pigs (Hartley strain, male and female, weighing 300-350 g) sensitized with egg white albumin as the antigen. The quantity of SRS-A generated and released on that occasion was determined by the method of Brocklehurst [J. Physiol., vol. 151, pages 416-435 (1960)].

Row | SMILES | inhibition at 1 µM [%]
1 | CC1=C(C)C(=O)C(CCCCC#CCCCC#CC=O)=C(C)C1=O [Ia-1] | 59 ± 15
2 | COC1=C(OC)C(=O)C(CCCCC#CCCCC#CC=O)=C(C)C1=O [Ia-2] | 66 ± 6
3 | CC1=C(C)C(=O)C(CCCCC#CCCCC#CC(=O)O)=C(C)C1=O [Ia-3, 2,3,5-trimethyl-6-(11-carboxyundeca-5,10-diynyl)-1,4-benzoquinone] | 58 ± 6
4 | COC1=C(OC)C(=O)C(CCCCC#CCCCC#CC(=O)O)=C(C)C1=O [Ia-4] | 61 ± 8

system: 5-lipoxygenase products (5-HETE) in RBL-1 cells; assay: Inhibition of 5-lipoxygenase products in RBL-1 cells (5-HETE production, HPLC); type: cell-based; conditions: Rattus norvegicus, 20 min, 10^-5 M test compound, arachidonic acid + A-23187, 37° C., read-out: Percent inhibition of generation and release of 5-HETE
Method: RBL-1 cells (rat basophilic leukemia cells) (10^7 cells) were suspended in 0.5 ml of MCM (mast cell medium), the test solution (composed of 0.5 ml MCM, 50 μg arachidonic acid, 10 μg A-23187 and 10^-6 M or 10^-5 M quinone compound) was added, and the mixture was incubated at 37° C. for 20 minutes. Thereafter, 4 ml of ethanol and 1,4-dimethoxy-2-methyl-3-(3-methoxypropyl)naphthalene (internal standard) were added, and the mixture was shaken well, then allowed to stand at room temperature for 10 minutes, and centrifuged at 2,000 revolutions per minute for 10 minutes. The supernatant was collected and concentrated to about 200 μl under reduced pressure. A mixed solvent for high performance liquid chromatography [CH3 CN (1500)-CH3 OH (500)-water (1100)-acetic acid (2), adjusted to pH 5.6 with aqueous ammonia] was added to the concentrate to make up to 1 ml. A 200-μl portion of this solution was subjected to high performance liquid chromatography for assaying 5-HETE (5-hydroxyeicosatetraenoic acid).
The percentage of inhibition of 5-HETE production (IE) is expressed by (1-b/a)×100, where a is the peak height or area corrected relative to the internal standard peak for the quinone compound-free (control) test solution and b is the peak height or area corrected in relation to the internal standard peak for the quinone compound-containing test solution.

Row | SMILES | inhibition at 10 µM [%]
5 | CCCCCC#CCC#CCC#CCC#CCCCC(=O)O [ETYA, 5,8,11,14eicosatetraynoic acid, reference compound] | 39.4
6 | CC1=C(C)C(=O)C(CCCCC#CCCCC#CC=O)=C(C)C1=O [Ia-1] | 83.5
7 | COC1=C(OC)C(=O)C(CCCCC#CCCCC#CC=O)=C(C)C1=O [Ia-2] | 84.3
8 | CC1=C(C)C(=O)C(CCCCC#CCCCC#CC(=O)O)=C(C)C1=O [Ia-3, 2,3,5-trimethyl-6-(11-carboxyundeca-5,10-diynyl)-1,4-benzoquinone] | 86.7
9 | COC1=C(OC)C(=O)C(CCCCC#CCCCC#CC(=O)O)=C(C)C1=O [Ia-4] | 85.4

same assay, conditions: Rattus norvegicus, 20 min, 10^-6 M test compound, arachidonic acid + A-23187, 37° C., read-out: Percent inhibition of generation and release of 5-HETE

Row | SMILES | inhibition at 1 µM [%]
10 | CCCCCC#CCC#CCC#CCC#CCCCC(=O)O [ETYA, 5,8,11,14eicosatetraynoic acid, reference compound] | 35.9
11 | CC1=C(C)C(=O)C(CCCCC#CCCCC#CC=O)=C(C)C1=O [Ia-1] | 71.6
12 | COC1=C(OC)C(=O)C(CCCCC#CCCCC#CC=O)=C(C)C1=O [Ia-2] | 72.3
13 | CC1=C(C)C(=O)C(CCCCC#CCCCC#CC(=O)O)=C(C)C1=O [Ia-3, 2,3,5-trimethyl-6-(11-carboxyundeca-5,10-diynyl)-1,4-benzoquinone] | 75.3
14 | COC1=C(OC)C(=O)C(CCCCC#CCCCC#CC(=O)O)=C(C)C1=O [Ia-4] | 70.6
